Measured values published in patent publication US20070135997A1, “Methods for analysis of biological dataset profiles” (priority 2003, published 2007).
“Also recorded” adds a separate entry of the source.

Tested on: VCAM-1 expression in human umbilical vein endothelial cells (HUVEC)
Experiment: Cell-based ELISA of VCAM-1 expression in cytokine-stimulated, gene-transduced endothelial cells
From the text: Cytokines, antibodies, and cell culture. Recombinant human IFN-γ, TNF-α, and IL-1βwere from R&D Systems, Murine IgG from Sigma, Mouse anti-human ICAM-1 (clone B4H10) from Beckman Coulter and mouse anti-human E-selectin (clone ENA1) from HyCult Biotechnology. Unconjugated mouse antibodies against human VCAM-1 (clone 51-10C9), CD31 (clone WM-59), HLA-DR (clone G46-6), MIG (clone B8-77), and MCP-1 (clone 5D3-F7) were from BD Biosciences. Mouse anti-human IL-8 (clone 6217.111) was from R&D Systems. PD098059 was from Calbiochem. EGM-2 medium and required supplements were from Clonetics. Human umbilical vein endothelial cells (HUVEC) were from Clonetics; cultured in microtiter plates in EGM-2 medium containing manufacturer's supplements plus 2% heat-inactivated fetal bovine serum. […] PD098059 (3.7 μM final concentration) was added 1 hr before stimulation and was present during the whole 24 hr stimulation period.
Cell-based ELISAs. Cell-based ELISAs were carried out as previously described. Briefly, microtiter plates containing treated and stimulated HUVEC were blocked, and then incubated with primary antibodies or isotype control antibodies (0.01-0.5 μg/ml) for 1 hr. After washing, plates were then incubated with a peroxidase-conjugated anti-mouse IgG secondary antibody (Promega) for 1 hr. Plates were washed and developed with TMB substrate (Clinical Science Products) and the optical density (OD) was read at 450 nm (subtracting the background absorbance at 650 nm) on a SpectraMAX 190 plate reader (Molecular Devices).
Retroviral gene transduction. Test genes were cloned into a vector derived from the MoMLV-based vector pFB (Stratagene) downstream of the MoMLV LTR. A truncated form of the human nerve growth factor receptor (NGFR) preceded by an internal ribosomal entry site was used as a marker gene. Retroviral vector plasmid DNA was transfected into AmphoPack-293 cells (Clontech) by a modified calcium phosphate method according to the manufacturer's protocol (MBS transfection kit, Stratagene). Cell supernatants were harvested 48 hours post-transfection, filtered to remove cell debris (0.45 μm), and transferred onto exponentially growing HUVEC. DEAE dextran (10 μg/ml) was added to facilitate transduction. After 5-8 hr, the viral supernatant was removed and cells were cultured for an additional 40 hours. Gene transfer efficiency was determined by flow cytometric analysis using an NGFR-specific monoclonal antibody and was typically ≧70%.

Compound	Effect of IL-1β on TNF-induced VCAM-1 expression (HUVEC stimulated with 10 ng/ml TNF + 1 ng/ml IL-1)	Effect of IL-1β on TNF-induced VCAM-1 expression (HUVEC stimulated with 10 ng/ml TNF + 1 ng/ml IL-1, listed as IL-1)	Effect on VCAM-1 expression when the RAS/MAPK pathway is activated (HUVEC over-expressing MYD88, RAS*, MEK1* or MEK2* or IL-1β-stimulated, PD098059 3.7 μM added 1 hr before 24 hr cytokine stimulation)	Effect on VCAM-1 expression in TNF-α-treated cells (HUVEC treated with TNF-α, PD098059 3.7 μM added 1 hr before 24 hr stimulation)
IL-1β: Recombinant human IL-1β from R&D Systems, pro-inflammatory cytokine	reduce the level of VCAM-1 expression	modulates the VCAM-1 expression induced by TNF	–	–
COc1cccc(-c2cc(=O)c3ccccc3o2)c1N [PD098059]	–	–	reversed the effect of MYD88 or RAS* over-expression; also recorded: increases VCAM-1 expression	no effect
